Read-outs that look alike come from different tables or passages of the source. e = 2'-O-(2-methoxyethyl) (MOE); d = 2'-deoxy (DNA)
Experiments:
[1] = test system: BALB/c mice; conditions: mouse, in vivo
[2] = test system: extrinsic pathway of blood coagulation; assay: Prothrombin Time (PT) in platelet poor plasma of treated mice, reported as INR; assay type: in vivo, mouse
Experimental: (§1) Prothrombin Time (PT) and Activated Partial Thromboplastin Time (aPTT) were measured using platelet poor plasma (PPP) from mice treated with ISIS 403102. PT and aPTT values provided in Table 20 are reported as International Normalized Ratio (INR) values. INR values for PT and aPTT were determined by dividing the PT or aPTT value for the experimental group by the PT or aPTT for the PBS treated group. This ratio was then raised to the power of the International Sensitivity Index (ISI) of the tissue factor used.
as §1, with “in Table 22 are reported” for “in Table 20 are reported”, “experimental group (i.e. 50 mg/kg treatment with ISIS 403102) by the” for “experimental group by the”
as §1, with “in Table 24 are reported” for “in Table 20 are reported”, “experimental group (i.e. 50 mg/kg treatment with ISIS 403102) by the” for “experimental group by the”

[3] = test system: platelet factor-4 (PF-4); assay: FeCl3 induced venous thrombosis (VT) model, real-time RT-PCR quantification of PF-4 in vena cava as measure of thrombus formation; assay type: in vivo, mouse; conditions: for PF-4 (percent of PF-4 mRNA as compared to the PBS + FeCl3 control) / PF-4 (percentage compared to PBS controls): BALB/c mice; for PF-4 (percent of PF-4 mRNA as compared to the PBS + FeCl3 control): no Plavix; for PF-4 (percentage compared to PBS controls): vena cava
Experimental: Two control groups of BALB/c mice were treated with PBS, administered subcutaneously twice a week for 3 weeks. Thrombus formation was induced with FeCl3 in half of the mice while the rest of the mice were assayed for tail bleeding. […] Thrombus formation was induced with FeCl3 in all groups of the VT mice except the first control group.
(§2) In mice undergoing FeCl3 treatment, thrombus formation was induced by applying a piece of filter paper (2×4 min) pre-saturated with 10% FeCl3 solution directly on the vena cava. After 3 minutes of exposure, the filter paper was removed. Thirty minutes after the filter paper application, a fixed length of the vein containing the thrombus was dissected out for platelet analysis. Liver was collected for RNA analysis.
(§3) Real-time RT-PCR quantification of platelet factor-4 (PF-4) was used to quantify platelets in the vena cava as a measure of thrombus formation.
Six additional groups of BALB/c mice was treated with 0.5 mg/kg, 1 mg/kg, 2 mg·kg, 3 mg/kg, 4 mg/kg, or 5 mg/kg of warfarin, administered intraperioneally daily for 6 days. Four hours after the last dose of warfarin, mice were sacrificed. A control group of BALB/c mice were treated with PBS, administered subcutaneously twice a week for 3 weeks. Two days after the last dose of PBS, mice were anesthetized with 150 mg/kg ketamine mixed with 10 mg/kg xylazine administered by intraperitoneal injection. Thrombus formation was induced with FeCl3 in groups of mice except the first control group.
as §2, with “mm)” for “min)”
as §3
Thrombus formation was induced with FeCl3 in all of the mice except the first […] control groups. All mice were anesthetized with 150 mg/kg of ketamine mixed with 10 mg/kg of xylazine administered by intraperitoneal injection.
After 3 minutes of exposure, the filter paper was removed. Thirty minutes after the filter paper application, a fixed length of the vein containing the thrombus was dissected out for platelet analysis.
Real-time PCR quantification of PF-4 was used to quantify platelets in the vena cava as a measure of thrombus formation. […] Data is presented as percent of PF-4 mRNA as compared to the PBS+ FeCl3 control, […]

[4] = test system: murine Factor 7 protein; assay: Plasma Factor 7 protein, Factor 7 chromogenic assay (Hyphen BioMed), BALB/c mice; assay type: in vivo, mouse; conditions: for % inhibition of murine Factor 7 protein (plasma): relative to PBS control
Experimental: BALB/c mice were treated with ISIS 403102 ([…], target site 11336, incorporated herein as SEQ ID NO: 161). BALB/c mice were injected subcutaneously with 5 mg/kg, 10 mg/kg, 25 mg/kg, or 50 mg/kg of ISIS 403102 twice a week for 3 weeks. A control group of mice was injected subcutaneously with PBS twice a week for 3 weeks. After the treatment period, whole liver was collected for RNA and protein analysis, and plasma was collected for clotting analysis (PT/aPTT).
Plasma Factor 7 protein was measured using a Factor 7 chromogenic assay (Hyphen BioMed). […] Results are presented as percent inhibition of Factor 7, relative to control.

## CCATAGAACAGCTTCACAGG (sugars from the 5' end e5 d10 e5, backbone and methylation of C not given here) [ISIS 403102]
[1]
  amount of bleeding in comparison to PBS treated mice: slight decrease in the amount of bleeding
  bleeding as compared to PBS control mice: did not significantly affect bleeding
[1]; sc, 25 mg/kg
  Blood: 0.06 g
[1]; sc, 37.5 mg/kg
  Blood: 0.06 g
[1]; sc, 40 mg/kg
  Blood: 0.10 g
  bleeding compared to PBS treated mice: less bleeding than PBS treated mice
[1]; sc, 50 mg/kg
  Blood: 0.10 g
  amount of bleeding in comparison to PBS treated mice: Bleeding was the same
[2]; BALB/c mice, 5 mg/kg s.c. twice a week for 3 weeks
  PT INR: 1.09
[2]; BALB/c mice, 10 mg/kg s.c. twice a week for 3 weeks
  PT INR: 1.33
[2]; BALB/c mice, 25 mg/kg s.c. twice a week for 3 weeks
  PT INR: 2.33
[2]; BALB/c mice, 50 mg/kg s.c. twice a week for 3 weeks
  PT INR: 4.37
[2]; BALB/c mice, 50 mg/kg, 1 dose, 1 day after last dose
  PT INR: 1.04
[2]; BALB/c mice, 50 mg/kg, 1 dose, 3 days after last dose
  PT INR: 1.20
[2]; BALB/c mice, 50 mg/kg, 2 doses, 3 days after last dose
  PT INR: 1.43
[2]; BALB/c mice, 50 mg/kg, 4 doses, 3 days after last dose
  PT INR: 2.13
[2]; BALB/c mice, 50 mg/kg, 6 doses, 2 days after last dose
  PT INR: 1.64
[2]; BALB/c mice, 50 mg/kg, 6 doses, 7 days after last dose
  PT INR: 2.08
[2]; BALB/c mice, 50 mg/kg, 6 doses, 14 days after last dose
  PT INR: 1.37
[2]; BALB/c mice, 50 mg/kg, 6 doses, 28 days after last dose
  PT INR: 0.96
[2]; BALB/c mice, 50 mg/kg, 6 doses, 42 days after last dose
  PT INR: 1.00
[2]; BALB/c mice, 50 mg/kg, 6 doses, 56 days after last dose
  PT INR: 0.99
[2]; BALB/c mice, single dose 50 mg/kg, day 1
  PT INR: 1.11
[2]; BALB/c mice, single dose 50 mg/kg, day 2
  PT INR: 1.64
[2]; BALB/c mice, single dose 50 mg/kg, day 3
  PT INR: 1.81
[2]; BALB/c mice, single dose 50 mg/kg, day 4
  PT INR: 1.97
[2]; BALB/c mice, single dose 50 mg/kg, day 6
  PT INR: 1.59
[2]; BALB/c mice, single dose 50 mg/kg, day 8
  PT INR: 1.55
[2]; BALB/c mice, single dose 50 mg/kg, day 12
  PT INR: 1.30
[2]; BALB/c mice, single dose 50 mg/kg, day 24
  PT INR: 1.12
[2]; BALB/c mice, single dose 50 mg/kg, day 56
  PT INR: 1.10
[2]; Example 11, 5-50 mg/kg sc twice a week for 3 weeks
  PT compared to the control: significantly prolonged
[2]; Example 13, 6 doses, day 7 to day 56
  PT over time: PT decreased
[2]; single dose 50 mg/kg, day 1
  PT INR: 1.11 INR
[2]; single dose 50 mg/kg, day 4
  PT INR: 1.97 INR
[2]; single dose 50 mg/kg, day 56
  PT INR: 1.10 INR
[3]; with FeCl3, ISIS 403102 20 mg/kg s.c. twice a week for three weeks
  PF-4 (percent of PF-4 mRNA as compared to the PBS + FeCl3 control): 39%
[3]; without FeCl3, ISIS 403102 20 mg/kg s.c. twice a week for three weeks
  PF-4 (percent of PF-4 mRNA as compared to the PBS + FeCl3 control): 2%
[3]; Example 14, 25, 37.5 or 50 mg/kg sc twice a week for 3 weeks
  PF-4 in comparison to the PBS control: reduction of PF-4
[3]; Example 16, dosages of 5 mg/kg and higher, sc twice a week for 3 weeks
  PF-4 in comparison to the PBS control: dose-dependent reduction of PF-4
[3]; FeCl3 (Example 16), 1 mg/kg s.c. twice a week for 3 weeks
  PF-4 (percentage compared to PBS controls): 120%
[3]; FeCl3 (Example 16), 3 mg/kg s.c. twice a week for 3 weeks
  PF-4 (percentage compared to PBS controls): 112%
[3]; FeCl3 (Example 16), 5 mg/kg s.c. twice a week for 3 weeks
  PF-4 (percentage compared to PBS controls): 69%
[3]; FeCl3 (Example 16), 10 mg/kg s.c. twice a week for 3 weeks
  PF-4 (percentage compared to PBS controls): 22%
[3]; FeCl3 (Example 16), 20 mg/kg s.c. twice a week for 3 weeks
  PF-4 (percentage compared to PBS controls): 41%
[3]; FeCl3 (Example 16), 40 mg/kg s.c. twice a week for 3 weeks
  PF-4 (percentage compared to PBS controls): 38%
[3]; FeCl3, 25 mg/kg s.c. twice a week for 3 weeks
  PF-4 (percentage compared to PBS controls): 34%
[3]; FeCl3, 37.5 mg/kg s.c. twice a week for 3 weeks
  PF-4 (percentage compared to PBS controls): 24%
[3]; FeCl3, 50 mg/kg s.c. twice a week for 3 weeks
  PF-4 (percentage compared to PBS controls): 24%
[4]; 5 mg/kg s.c. twice a week for 3 weeks
  % inhibition of murine Factor 7 protein (plasma): 71%
[4]; 10 mg/kg s.c. twice a week for 3 weeks
  % inhibition of murine Factor 7 protein (plasma): 88%
[4]; 25 mg/kg s.c. twice a week for 3 weeks
  % inhibition of murine Factor 7 protein (plasma): 99%
[4]; 50 mg/kg s.c. twice a week for 3 weeks
  % inhibition of murine Factor 7 protein (plasma): 99%
[4]; 5-50 mg/kg sc twice a week for 3 weeks, plasma
  reduction of murine Factor 7 protein over PBS control: dose-dependent reduction

— patent US20120214862A1, “MODULATION OF FACTOR 7 EXPRESSION” (ISIS Pharmaceuticals, Inc., priority 2009, published 2012)
